In US20250049027A1, “PLANT PATHOGEN COMPOSITION” (Robjulz Pty. Ltd., priority 2021, published 2025):

What was measured:
[1] = system: Fusarium oxysporum f. sp. cubense TR4 (FocTR4); assay: In vitro poison agar test, mycelial growth on potato dextrose agar; assay type: cell-based; conditions: concluded from the in vitro data; ppm of BAC
Method: In vitro tests were performed against Fusarium oxysporum f. sp. cubense TR4 (FocTR4), the fungal pathogen responsible for Panama wilt of banana, using a poison agar method as discussed below.
(§1) Potato dextrose agar (PDA, 39 g) medium (Difco™) was added to distilled or deionized water (1 L) in accordance with the manufacturer's instruction before autoclaving at 121° C. for 20 minutes and cooling to 50-55° C. in a water bath. To the resulting mixture was added the stock solution of Example 3, in accordance with the amounts in Table 5, or sterile distilled water (control sample). Five replications for each treatment were prepared, and the experiment was carried out using a completely randomized design (CRD).
Mycelial growth in each treatment was recorded within seven days after incubation at room temperature with natural dark/light cycle in reference to the growth of the control. Percent inhibition of diameter growth (% PIDG) was calculated as described above. Analyses of statistical data were carried out using the standard analysis of variance (ANOVA) procedure using SAS software (version 9.2).

[2] = system: P. palmivora; assay: In vivo testing using durian fruit, pre-treated then inoculated; set-up: species or system Phytophthora palmivora; conditions: concluded from the durian fruit data; ppm of BAC
Method: Healthy durian fruits were harvested carefully from a durian plantation, for artificial inoculation with Phytophthora isolate DB4. Untreated durian fruits with five replicates were used as the control. Fungicidal compositions were prepared, as for Example 5, then applied to the fruit surface. Durian fruits with sterile distilled water were included as a negative control. The pre-treated fruits were inoculated with a 12 mm plug of a 5-day old culture of P. palmivora grown on CMA plates by placing over the intact skin at the centre of each fruit. The resulting durian fruits were kept in moist plastic trays, covered with black polythene sheets to maintain moisture level, and incubated at 25±2° C. in the dark for seven days. Measurement of lesions were made at seven days after inoculation.

[3] = system: Phytophthora palmivora; assay: In vitro poison agar test, mycelial growth on corn meal agar; assay type: cell-based; conditions: concluded from the in vitro data; ppm of BAC
Method: In vitro tests were performed against Phytophthora palmivora, the pathogen responsible for pod rot of cocoa, stem canker of durian and rubber, and foot rot of pepper, using a poison agar method as discussed below.
A stock solution was prepared with (a) BAC (50% w/v in water, 180 mL), (b) STPP (25 g), and (c) BL8 (120 mL), with enough water to provide a total volume of 1 L.
as §1, with “Corn meal” for “Potato dextrose”, “(CMA, 17” for “(PDA, 39”, “(Oxoid™, Thermo Scientific)” for “(Difco™)”, “described above,” for “of Example 3,”, “3,” for “5,”
Mycelial growth in each treatment was recorded within seven days after incubation at room temperature with natural dark/light cycle in reference to the growth of the control. Percent inhibition of diameter growth (% PIDG) was calculated as follows:
[formula] • where: dc=average diameter of fungal colony in the control plate, and • dt=average diameter of fungal colony in the treatment plate. […]

[4] = system: Fusarium oxysporum f. sp. cubense TR4 (FocTR4); assay: In vivo preventative testing using banana plants, soil application before inoculation; conditions: concluded from the banana plant data; ppm of BAC
Method: The efficacy of a fungicidal composition of the present invention was tested against Fusarium oxysporum f. sp. cubense TR4 (FocTR4), the fungal pathogen responsible for Panama wilt of banana, for use as a preventative.
Banana seedlings (cv. Berangan, 2-month-old) were obtained from Malaysian Agricultural Research and Development Institute (MARDI). Soil was prepared in polybags and sterilized using a large capacity autoclave at the Institute of Plantation Sciences (IKP). Seedlings were allowed to acclimatize in a greenhouse for approximately two months, reaching a height of about 50 cm, before being inoculated with FocTR4. Plants were watered with a dripping system, and fertilized with NPK.
The seedlings were used in a randomized complete block design (RCBD) with seven treatments: healthy control, disease control, four concentrations (100 ppm, 300 ppm, 500 ppm and 700 ppm), and a commercial fungicide. For the four concentrations tested, compositions were either a test solution as described in Example 2, or a polymer control (as described in Example 1 with acrylamide polymer omitted). […]
Four replications were used for each treatment, with four plants per replicate. […] Seedlings were assessed after inoculation to measure disease incidence (DI) and disease severity (DSI). […] DSI was measured by estimating the proportion of plant surface area was infected. […]

[5] = system: P. palmivora; assay: In vivo testing using cocoa pods, pre-treated then inoculated; set-up: species or system Phytophthora palmivora
Method: The efficacy of a fungicidal composition of the present invention was tested against P. palmivora. Healthy, green cocoa pods were picked, prior to artificial inoculation with Phytophthora isolate M5. One highly virulent P. palmivora isolate (MI 5 from Sabah) with 5 replicates (pods) were used as the control.
Each pod was washed carefully three times with sterile distilled water, the surface was disinfected for 2 minutes in 75% ethanol, and pods were air-dried at room temperature (25±2° C.). Different concentrations of the composition of the present invention (0-540 ppm) were prepared as for Examples 3 and 4, using the composition described in Example 1 which contained a polymeric film-forming agent, and spread on the pod surface to cover the whole pod. Cocoa pods with sterile distilled water were included as a negative control. After spreading, the pre-treated pods were inoculated with a 12 mm plug of 5-day old culture of P. palmivora grown on CMA plates by placing over the intact skin at the centre of each cocoa pod (see FIGS. 3A-I). The resulting pods were kept in moist plastic trays, covered with black polythene sheets to maintain moisture level, and incubated at 25±2° C. in the dark for seven days.

benzalkonium chloride [BAC]
effective concentration for controlling a fungus such as Fusarium [1]: 500-2000 ppm
effective concentration for controlling an oomycete such as P. palmivora when applied to the fruit [2]: 15-750 ppm
effective concentration for controlling an oomycete such as Phytophthora [3]: 15-750 ppm
effective concentration for controlling a fungus such as Fusarium, when applied to the soil [4]: 500-2000 ppm
pods showing fungal infection around plug ([5]; cocoa pods treated with 18 ppm BAC, FIG. 3B): four out of five pods show fungal infection around plug
pods showing fungal infection around plug ([5]; cocoa pods treated with 36 ppm BAC, FIG. 3C): four out of five pods show fungal infection around plug
pods showing fungal infection around plug ([5]; cocoa pods treated with 54 ppm BAC, FIG. 3D): three out of five pods show fungal infection around plug
pods showing fungal infection around plug ([5]; cocoa pods treated with 72 ppm BAC, FIG. 3E): two out of five pods show fungal infection around plug
pods showing fungal infection around plug ([5]; cocoa pods treated with 90, 180, 360 and 540 ppm BAC, FIG. 3F-I): no fungal infection around plug
effective concentration for controlling an oomycete such as P. palmivora when applied to the fruit ([5]; concluded from the cocoa pod data, ppm of BAC): 15-750 ppm
